Reference: a compilation of properties of binary mixtures (doi:10.1016/j.molliq.2022.118955)
Values belong to the compound of their own block, whether it stands above or below them.

Assay: xn = mol fraction of the nth substance listed
Details: 298.15 K, 100 kPa

electrical conductivity (x1 = 0.0198): 0.493 S/m
electrical conductivity (x1 = 0.0392): 0.821 S/m
electrical conductivity (x1 = 0.0676): 1.2 S/m
electrical conductivity (x1 = 0.148): 1.69 S/m
electrical conductivity (x1 = 0.2876): 1.53 S/m
electrical conductivity (x1 = 0.4094): 1.1 S/m
electrical conductivity (x1 = 1): 0.0522 S/m
Structure (SMILES): CCCC[n+]1ccn(C)c1.[I-] + CCO

electrical conductivity (x1 = 0.0104): 0.33 S/m
electrical conductivity (x1 = 0.0208): 0.581 S/m
electrical conductivity (x1 = 0.0477): 1.15 S/m
electrical conductivity (x1 = 0.0766): 1.62 S/m
electrical conductivity (x1 = 0.1141): 2.09 S/m
electrical conductivity (x1 = 0.1621): 2.51 S/m
electrical conductivity (x1 = 0.2282): 2.75 S/m
electrical conductivity (x1 = 0.3112): 2.76 S/m
Structure (SMILES): CC[n+]1ccn(C)c1.[I-] + CCO

electrical conductivity (x2 = 0): 0.0001 S/m
Structure (SMILES): CCO + CC[n+]1ccn(C)c1.[I-]
